Columns and labels:
Format in all cases: cell-based
[1] = biological target: T1, WEE1 (Homo sapiens, UniProt P30291+Q96SW2); test: WEE1-ePL degradation assay (293T-LentiX, InCELL Hunter luminescence, 4 hr); settings: for DC50: LentiX-HEK293T cells expressing WEE1-ePL, 4 hr incubation, read-out: 293T-LentiX WEE1-ePL Degradation 4 hr EC50; for 293T-LentiX WEE1-ePL Degradation 4 hr YMin (%): lower limit of fit, % of DMSO control signal remaining
T1 construct: C-terminal ePL-tagged (DiscoverX, Fremont, CA) full-length WEE1 expression construct; expressed in transfected cells; host or cells: LentiX-HEK293T (Invitrogen), lentivirally transduced; the cells also over-express GSPT1-GN
T1 sequence (P30291 whole entry): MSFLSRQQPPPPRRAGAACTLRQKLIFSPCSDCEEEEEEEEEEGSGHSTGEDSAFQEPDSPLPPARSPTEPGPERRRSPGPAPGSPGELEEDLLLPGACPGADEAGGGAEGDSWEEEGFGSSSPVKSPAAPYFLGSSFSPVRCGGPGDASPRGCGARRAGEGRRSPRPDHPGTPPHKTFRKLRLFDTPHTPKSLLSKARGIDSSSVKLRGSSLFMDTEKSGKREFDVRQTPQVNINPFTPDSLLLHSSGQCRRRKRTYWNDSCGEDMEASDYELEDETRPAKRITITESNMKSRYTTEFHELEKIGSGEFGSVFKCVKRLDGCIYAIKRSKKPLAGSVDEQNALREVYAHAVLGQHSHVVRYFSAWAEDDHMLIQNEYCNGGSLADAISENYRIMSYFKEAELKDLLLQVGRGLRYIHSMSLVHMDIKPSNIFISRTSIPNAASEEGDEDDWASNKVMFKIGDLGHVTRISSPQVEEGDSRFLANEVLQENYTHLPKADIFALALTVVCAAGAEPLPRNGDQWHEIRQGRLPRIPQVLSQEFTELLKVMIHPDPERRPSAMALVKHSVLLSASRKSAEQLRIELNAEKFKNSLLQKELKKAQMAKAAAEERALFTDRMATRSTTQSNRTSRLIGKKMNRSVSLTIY
T1 sequence (Q96SW2 whole entry): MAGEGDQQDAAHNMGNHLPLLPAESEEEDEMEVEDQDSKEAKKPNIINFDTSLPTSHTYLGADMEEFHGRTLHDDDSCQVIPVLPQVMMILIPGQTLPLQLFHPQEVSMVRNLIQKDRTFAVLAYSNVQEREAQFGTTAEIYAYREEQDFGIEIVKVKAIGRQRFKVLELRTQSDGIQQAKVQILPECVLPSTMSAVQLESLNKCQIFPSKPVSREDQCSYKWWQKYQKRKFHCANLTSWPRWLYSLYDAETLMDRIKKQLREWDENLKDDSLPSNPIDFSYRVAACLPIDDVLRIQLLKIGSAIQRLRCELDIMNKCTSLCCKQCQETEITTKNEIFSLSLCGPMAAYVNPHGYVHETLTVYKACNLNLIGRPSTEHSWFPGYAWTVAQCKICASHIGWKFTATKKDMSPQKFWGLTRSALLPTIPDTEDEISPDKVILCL
T1 sequence (Q16531 whole entry partner): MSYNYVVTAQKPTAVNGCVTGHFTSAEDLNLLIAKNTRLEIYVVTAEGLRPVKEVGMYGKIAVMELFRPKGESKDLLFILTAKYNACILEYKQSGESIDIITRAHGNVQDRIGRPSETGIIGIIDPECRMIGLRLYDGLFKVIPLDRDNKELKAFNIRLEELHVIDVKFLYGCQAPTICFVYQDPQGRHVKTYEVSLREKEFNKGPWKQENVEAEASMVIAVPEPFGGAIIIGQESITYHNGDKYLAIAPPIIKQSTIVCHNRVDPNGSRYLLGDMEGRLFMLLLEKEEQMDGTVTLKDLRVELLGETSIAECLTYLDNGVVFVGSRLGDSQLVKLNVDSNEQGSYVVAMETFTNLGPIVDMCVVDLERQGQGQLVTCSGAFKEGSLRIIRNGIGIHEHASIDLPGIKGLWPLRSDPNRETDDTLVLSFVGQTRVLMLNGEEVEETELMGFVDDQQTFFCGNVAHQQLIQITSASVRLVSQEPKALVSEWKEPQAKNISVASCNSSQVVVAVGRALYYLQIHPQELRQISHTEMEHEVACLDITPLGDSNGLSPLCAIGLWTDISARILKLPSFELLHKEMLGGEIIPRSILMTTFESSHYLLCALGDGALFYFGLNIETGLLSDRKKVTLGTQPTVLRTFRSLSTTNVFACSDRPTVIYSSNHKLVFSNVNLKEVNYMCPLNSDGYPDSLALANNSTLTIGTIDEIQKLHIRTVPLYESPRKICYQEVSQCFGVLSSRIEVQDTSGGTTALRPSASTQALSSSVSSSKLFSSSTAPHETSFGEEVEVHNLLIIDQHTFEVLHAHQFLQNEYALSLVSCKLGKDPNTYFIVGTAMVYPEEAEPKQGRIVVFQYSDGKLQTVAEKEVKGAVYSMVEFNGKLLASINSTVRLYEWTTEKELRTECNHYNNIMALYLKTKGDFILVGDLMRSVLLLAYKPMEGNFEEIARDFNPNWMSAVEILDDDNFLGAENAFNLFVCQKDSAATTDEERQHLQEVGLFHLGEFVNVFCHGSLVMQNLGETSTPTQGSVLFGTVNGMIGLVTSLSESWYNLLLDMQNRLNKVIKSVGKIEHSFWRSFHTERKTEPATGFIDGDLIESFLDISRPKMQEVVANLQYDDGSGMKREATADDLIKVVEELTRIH
Source text: To generate LentiX-WEE1-ePL-GSPT1-ND cells for the WEE1 degradation assay, LentiX-HEK293T (Invitrogen) were tranduced by lentivirus with a C-terminal ePL-tagged (DiscoverX, Fremont, CA) full-length WEE1 expression construct. A separate lentiviral construct was introduced to over-express a mutated form of GSPT1 (NP_002085), termed GSPT1-GN, which contains a G575N mutation and is further truncated in the first 158 amino acids. GSPT1-GN is functional but not degradable by Cereblon. Cells were selected and maintained in complete DMEM media (DMEM, 10% Heat Inactivated FBS, 400 μg/mL Geneticin, and 1 μg/mL puromycin at 37 C and 5% CO2). Cells were passaged every 3-4 days by reseeding 1×10^6 cells in a T150 flask.
Cells were dispensed into 384-well white plates (Corning #3570, NY) that were pre-spotted with compounds using an acoustic dispenser (Echo acoustic transfer system, Beckman Coulter Life Sciences, Carlsbad, CA) as a 10-point dose-response curve with a 3-fold dilution starting at either 1 uM or 10 uM and including a DMSO control. Twenty-five microliters of media containing 2500 cells for LentiX-oeWEE1-ePL was dispensed per well. Assay plates were incubated at 37° C. with 5% CO2 for four hours (WEE1) After incubation, 25 μL of the InCELL Hunter™ Detection Reagent Working Solution (DiscoverX, Fremont, CA) was added to each well and incubated at room temperature for 30 minutes protected from light. After 30 minutes, luminescence was read on a PHERAstar luminometer (Cary, NC).
To determine the half-maximal effective concentration (EC50) values for WEE1-ePL degradation, a four parameter logistic model was used: (Sigmoidal Dose-Response Model) (FIT=(A+((B−A)/1+((C/x)^D)))) where C is the inflection point (EC50), D is the Hill slope, and A and B are the low and high limits of the fit respectively). The lower limit of the fit (value A) is referred to as Ymin. […] The maximum limit constraint, Ymax, is similarly derived using DMSO control. The curves were processed and evaluated using Activity Base (IDBS, Alameda, CA) or using Dotmatics (Boston, MA).

[2] = test system: MKN45 cells; test: MKN45 cell proliferation assay (Cell-Titer-Glo, 120 hr); settings: for EC50: Homo sapiens, MKN-45, 120 h, read-out: MKN45 Cell Prolif. 120 hr EC50; for MKN45 Cell Prolif. 120 hr YMin (%): minimal percent of DMSO control observed
Source text: (§1) MKN45 cells were obtained from Celgene internal cell banks and cultured in RPMI complete media (RPMI-1640, 1× Penicillin/Streptomycin, 1× glutamine, 1× Sodium Pyruvate, Non-essential Amino Acids, 10% Fetal Bovine serum, all component from Thermo-Fisher). MDA-MB-231 cells were obtained from the ATCC (HTB-26) and cultured in RPMI-1640 and 10% Fetal Bovine serum; MDA-MB-231 cells were expanded and stored as aliquots in liquid nitrogen in Celgene internal cell banks. Compounds were dispensed into 384-well plates using an HP DE300 compound printer in triplicate with 8 compounds on each plate. Compounds were dispensed into 384-well black clear bottom plates (Corning #3764BC) using an EDC acoustic dispenser at BMS. For each compound, a 10-point dose response was printed at half-log dilutions starting at either 1 uM or 10 uM in triplicate for MKN45 cells and in duplicate for MDA-MB-231 cells. The DMSO concentration was kept constant for a final assay concentration of 0.1% per well assuming 50 ul final media volume. Compound plates were sealed and frozen at −20 C until use.
(§2) For each assay batch, compound plates were thawed and allowed to reach room temperature, and cells were seeded at 400 MKN45 cells per well, or 800 MDA-MB-231 cells per well, in 50 ul media listed above for each cell line. After 120 hours of incubation at 37 C and 5% CO2, cells were lysed by addition of 25 μL of Cell-Titer-Glo Reagent (Promega Corporation, Madison, WI), as per manufacturer's instructions, protected from light, shaken for 45 minutes, and total luminescence read by a Perkin Elmer Envision plate reader. Total luminescence signal is linearly correlated with cell number remaining in the well.
(§3) Luminescence data was processed per plate by subtracting reagent-only “blank” well luminescence from all measured values and calculating a percent of DMSO control value for each treatment well. Then, to determine the half-maximal effective concentration (EC50) values for cell growth inhibition, a four parameter logistic model was fit to the data for each DMSO-normalized compound: Sigmoidal Dose-Response Model: (FIT=(A+((B−A)/1+((C/x)^D)))) where C is the inflection point ([…]), D is the Hill slope, and A and B are the low and high limits of the fit respectively. The lower limit of the fit (value A) is referred to as Ymin-calculated. The minimal percent of DMSO control that is observed in the concentrations tested for each compound is labeled as “Ymin-obs”, and was recorded and reported in the tables. Sigmoidal fit curves were processed and evaluated using Activity Base (IDBS, Alameda, CA) or using Dotmatics (Boston, MA). N/A=not available at the present time.

[3] = test system: MDA-MB-231 cells; test: MDA-MB-231 cell proliferation assay (Cell-Titer-Glo, 120 hr); settings: for EC50: Homo sapiens, MDA-MB-231, 120 h, read-out: MDA-MB 231 Cell Prolif. 120 hr EC50; for MDA-MB 231 Cell Prolif. 120 hr YMin (%): minimal percent of DMSO control observed
Source text: as §1, §2, §3

DC50 [1] [nM]	293T-LentiX WEE1-ePL Degradation 4 hr YMin (%) [1] [%]	EC50 [2] [nM]	EC50 [3] [nM]	Compound	MKN45 Cell Prolif. 120 hr YMin (%) [2] [%]	MDA-MB 231 Cell Prolif. 120 hr YMin (%) [3] [%]
10	28.1	19	129	CN1CC[C@]2(C[C@H](c3ccc4cc(CN5CC[C@H](Oc6ccc7c(c6)CN([C@H]6CCC(=O)NC6=O)C7=O)C5)ccc4n3)CO2)C1 (relative stereo) [Example 3, rel-(3S)-3-(5-(((3S)-1-((2-(7-methyl-1-oxa-7-azaspiro[4.4]nonan-3-yl)quinolin-6-yl)methyl)pyrrolidin-3-yl)oxy)-1-oxoisoindolin-2-yl)piperidine-2,6-dione]	13.0	61.3
1	30.3	5	101	O=C1CC[C@H](N2Cc3cc(O[C@H]4CCN(Cc5ccc6nc([C@@H]7CCO[C@@]8(CCOC8)C7)ccc6c5)C4)ccc3C2=O)C(=O)N1 (relative stereo) [Example 20, rel-(3S)-3-(5-(((3S)-1-((2-(2,6-dioxaspiro[4.5]decan-9-yl)quinolin-6-yl)methyl)pyrrolidin-3-yl)oxy)-1-oxoisoindolin-2-yl)piperidine-2,6-dione]	11.6	60.2
1	29.8	2	129	O=C1CC[C@H](N2Cc3cc(O[C@H]4CCN(Cc5ccc6nc([C@@H]7CCO[C@]8(CCOC8)C7)ccc6c5)C4)ccc3C2=O)C(=O)N1 (relative stereo) [Example 21, rel-(3S)-3-(5-(((3S)-1-((2-(2,6-dioxaspiro[4.5]decan-9-yl)quinolin-6-yl)methyl)pyrrolidin-3-yl)oxy)-1-oxoisoindolin-2-yl)piperidine-2,6-dione]	9.9	41.9
1	31.3	2	39	O=C1CC[C@H](N2Cc3cc(O[C@H]4CCN(Cc5ccc6nc([C@H]7CCO[C@@]8(CCOC8)C7)ccc6c5)C4)ccc3C2=O)C(=O)N1 (relative stereo) [Example 22, rel-(3S)-3-(5-(((3S)-1-((2-(2,6-dioxaspiro[4.5]decan-9-yl)quinolin-6-yl)methyl)pyrrolidin-3-yl)oxy)-1-oxoisoindolin-2-yl)piperidine-2,6-dione]	10.8	42.5
2	33.5	6	82	O=C1CC[C@H](N2Cc3cc(O[C@H]4CCN(Cc5ccc6nc([C@H]7CCO[C@]8(CCOC8)C7)ccc6c5)C4)ccc3C2=O)C(=O)N1 (relative stereo) [Example 23, rel-(3S)-3-(5-(((3S)-1-((2-(2,6-dioxaspiro[4.5]decan-9-yl)quinolin-6-yl)methyl)pyrrolidin-3-yl)oxy)-1-oxoisoindolin-2-yl)piperidine-2,6-dione]	11.8	56.9
3	19.8	7	17	COC[C@@H]1CN(Cc2cc(F)c3nc(C4CCC(O)CC4)ncc3c2)C[C@H]1Oc1ccc2c(c1)CN([C@H]1CCC(=O)NC1=O)C2=O (relative stereo) [Example 50, rel-(S)-3-(5-(((3S,4S)-1-((8-fluoro-2-(4-hydroxycyclohexyl)quinazolin-6-yl)methyl)-4-(methoxymethyl)pyrrolidin-3-yl)oxy)-1-oxoisoindolin-2-yl)piperidine-2,6-dione]	8.7	19.3
1	29.0	1	15	COC[C@@H]1CN(Cc2cc3ccc(C4CCC(O)CC4)cc3cn2)C[C@H]1Oc1ccc2c(c1)CN([C@H]1CCC(=O)NC1=O)C2=O (relative stereo) [Example 51, rel-(S)-3-(5-(((3S,4S)-1-((7-(4-hydroxycyclohexyl)isoquinolin-3-yl)methyl)-4-(methoxymethyl)pyrrolidin-3-yl)oxy)-1-oxoisoindolin-2-yl)piperidine-2,6-dione]	9.9	24.8
1	27.2	1	12	COC[C@@H]1CN(Cc2cc(F)c3nc(C4CC(C)OC(C)C4)ccc3c2)C[C@H]1Oc1ccc2c(c1)CN([C@H]1CCC(=O)NC1=O)C2=O (relative stereo) [Example 52, re1-(3S)-3-(5-{[(3S,4S)-1-{[2-(2,6-dimethyloxan-4-yl)-8-fluoroquinolin-6-yl]methyl}-4-(methoxymethyl)pyrrolidin-3-yl]oxy}-1-oxo-2,3-dihydro-1H-isoindol-2-yl)piperidine-2,6-dione]	8.3	16.7
	31.2		9	COC[C@@H]1CN(Cc2cc(F)c3nc(C4CCC(O)CC4)ccc3c2)C[C@H]1Oc1ccc2c(c1)CN([C@H]1CCC(=O)NC1=O)C2=O (relative stereo) [Example 54, rel-(S)-3-(5-(((3S,4S)-1-((8-fluoro-2-(4-hydroxycyclohexyl)quinolin-6-yl)methyl)-4-(methoxymethyl)pyrrolidin-3-yl)oxy)-1-oxoisoindolin-2-yl)piperidine-2,6-dione]	10.5	48.9
	30.3		11	COC[C@@H]1CN(Cc2cc(F)c3nc(C4CCC(C(C)(C)O)CC4)ccc3c2)C[C@H]1Oc1ccc2c(c1)CN([C@H]1CCC(=O)NC1=O)C2=O (relative stereo) [Example 57, rel-(S)-3-(5-(((3S,4S)-1-((8-fluoro-2-(4-(2-hydroxypropan-2-yl)cyclohexyl)quinolin-6-yl)methyl)-4-(methoxymethyl)pyrrolidin-3-yl)oxy)-1-oxoisoindolin-2-yl)piperidine-2,6-dione]	8.0	13.2
